≈ marks a conversion by molar mass, not a printed value. Where a name gives a salt, the structure may show the parent alone.

This test concerns Helicobacter pylori. Briefly: Activity against Helicobacter pylori (agar growth inhibition, methodology of Iwahi et al.). As to conditions: 96 h, Columbia agar (Oxoid), growth period of 4 days, read-out: approx. MIC50. The class given is cell-based. An excerpt:
The compounds of the formula I were investigated regarding their activity against Helicobacter pylori following the methodology described by Tomoyuki Iwahi et al. (Antimicrobial Agents and Chemotherapy, 1991, 490-496) using Columbia agar (Oxoid) and with a growth period of 4 days. The approx. MIC 50 values listed in the following Table A resulted here for the compounds investigated (the numbers of the compounds given agree with the example numbers in the description).
Turning to `Cc1c(SCCOc2ccccc2)ccnc1CSc1nc2ccccc2[nH]1` [Compound 1], the MIC50 was ~0.05 µg/mL (≈ 0.123 µM).

In the case of `Cc1c(SCCCCOc2ccccc2)ccnc1CSc1nc2ccccc2[nH]1` [Compound 2], the MIC50 is ~0.1 µg/mL (≈ 0.23 µM). With `Cc1ccc(CSCCSc2ccnc(CSc3nc4ccccc4[nH]3)c2C)cc1` [Compound 3, 2-{[[3-Methyl-4-[5-(4-methylphenyl)-1,4-dithia-pent-1-yl]-2-pvridinyl]methyl]thio}-1 H-benzimidazole] the figure was ~0.05 µg/mL (≈ 0.111 µM). With `Cc1c(SCCCSC(=S)N(C)C)ccnc1CSc1nc2ccccc2[nH]1` [Compound 4, 2-{[[4-[3-Dimethvldithiocarbamoylpropylthio]-3-methyl-2-pyridinyl]methyl]thio}1 H-benzimidazole] the figure was ~0.05 µg/mL (≈ 0.111 µM). In the case of `Cc1c(SCCCSCc2ccco2)ccnc1CSc1nc2ccccc2[nH]1` [Compound 5, 2-{[[4-[(6-Furan-2-yl)-1,5-dithiahex-1-yl]-3-methyl-2-pyridinyl]methyl]thio}-1 H-benzimidazole] it was ~0.05 µg/mL (≈ 0.113 µM); in that of `Cc1c(SCCCSCc2ccc(CN(C)C)o2)ccnc1CSc1nc2ccccc2[nH]1` [Compound 6, trihydrochloride], ~0.05 µg/mL; in that of `Cc1scnc1CCSCCCSc1ccnc(CSc2nc3ccccc3[nH]2)c1C.Cl.Cl.Cl` [Compound 7, 2-{[[3-Methyl-4-[7-(5-methylthiazol-4-yl)-1,5 dithiahept-1-yl]-2-pyridinyl]methyl]thio}-1 H-benzimidazole trihydrochloride], ~0.05 µg/mL.

As for `Cc1c(SCCCSc2nc3ccccc3s2)ccnc1CSc1nc2ccccc2[nH]1` [Compound 10, 2-{[[4-[(5-Benzothiazol-2-yl)-1,5-dithiapent-1-yl]-3-methyl-2-pyridinyl]methyl]thio}-1 H-benzimidazole], the MIC50 was ~0.1 µg/mL (≈ 0.202 µM). With `Cc1c(SCCCSc2nc3ccccc3o2)ccnc1CSc1nc2ccccc2[nH]1` [Compound 11, 2-{[[4-[(5-Benzoxazol-2-yl)-1,5-dithiapent-1-yl]-3-methyl-2-pyridinyl]methyl]thio}1 H-benzimidazole] the figure was ~0.1 µg/mL (≈ 0.209 µM); with `Cc1c(SCCCSc2ccncc2)ccnc1CSc1nc2cccnc2[nH]1` [Compound 14], ~0.1 µg/mL (≈ 0.227 µM).

For the origin of these results see patent US5859030A, “Substituted arylalkylthioalkylthiopyridines for use in the control of helicobacter bacteria” (BYK Gulden Lomberg Chemische Fabrik GmbH, priority 1994, dated 1999).
